Source: patent publication US20240124442A1, “TRICYCLIC-AMIDO-BICYCLIC PRMT5 INHIBITORS” (AMGEN INC., priority 2021, published 2024)
pIC50: −log10 of the molar value.

What was measured:
HCT116 WT cells = assay: HCT116 WT (parent) cell line proliferation / cell viability (CellTiter-Glo, 6 days); format: cell-based; details: Homo sapiens, HCT-116, 144 h, 6 days treatment
How it was run: (§1)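 Isogenic HCT116 parent and MTAP-knockout cells in RPMI 1640 + 10% FBS, plated overnight, then exposed to compound for 6 days (37 °C, 5% CO2). Viability by CellTiter-Glo luminescence. Dilutions: 8–9 points from 1 or 10 μM (1:3), or 22 points from 10 or 50 μM (1:2); IC50 by 4-parameter or Hill −1 fit.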

HCT116 MTAP null cells = assay: HCT116 MTAP null cell line proliferation / cell viability (CellTiter-Glo, 6 days); format: cell-based; details: 144 h; HCT116 MTAP null cells, 6 days treatment, CellTiter-Glo cell viability; read-out: HCT-116 MTAP null IC50
How it was run: as §1

| Compound | pIC50 (HCT116 WT cells) | pIC50 (HCT116 MTAP null cells) |
| --- | --- | --- |
| Cc1cc2nc(N)c3cnn(C)c3c2cc1C(=O)N(C)C1CCOCc2nc(C(F)(F)F)ccc21 [Example 316, 4-amino-N,1,7-trimethyl-N-(5R)-2-(trifluoromethyl)-5,6,7,9-tetrahydrooxepino[3,4-b]pyridin-5-yl)-1H-pyrazolo-[4,3-c]quinoline-8-carboxamide and 4-amino-N,1,7-trimethyl-N-((5S)-2-(trifluoromethyl)-5,6,7,9-tetrahydrooxepino[3,4-b]pyridin-5-yl)-1H-pyrazolo-[4,3-c]quinoline-8-carboxamide] | 5.76 | 7.59 |
| CCN(C(=O)c1ccc2nc(N)c3c(c2c1)CO[C@@H]3C)[C@@H]1COCc2cc(C3CC3)ccc21 [Example 621, (3R)-4-amino-N-((4S)-7-cyclopropyl-3,4-dihydro-1H-2-benzopyran-4-yl)-N-ethyl-3-methyl-1,3-dihydrofuro[3,4-c]quinoline-8-carboxamide] | 5.98 | 7.60 |
| CN(C(=O)c1cc2c3c(c(N)nc2cc1Cl)COC3)[C@@H]1COc2cc(C(F)(F)F)ncc21 (single isomer, unassigned) [Example 361] | 5.87 | 7.54 |
| CN(C(=O)c1cc2c3c(c(N)nc2cc1F)COC3)[C@H]1COCc2cc(-c3ccc(C(F)(F)F)cc3)ccc21 (single isomer, unassigned) [Example 665] | 5.60 | 6.06 |
| CN(C(=O)c1ccc2nc(N)c3cnn(C)c3c2c1)[C@@H]1COc2cc(-c3cc(F)cc(F)c3)ccc21 [Example 641, 4-amino-N-((3S)-6-(3,5-difluorophenyl)-2,3-dihydro-1-benzofuran-3-yl)-N,1-dimethyl-1H-pyrazolo[4,3-c]quinoline-8-carboxamide] | 5.80 | 7.38 |
| CN(C(=O)c1cc2c(cc1F)nc(N)c1cnn(C)c12)[C@@H]1COc2cc(Cl)c(Cl)cc21 [Example 476, 4-amino-N-((3S)-5,6-dichloro-2,3-dihydro-1-benzofuran-3-yl)-7-fluoro-N,1-dimethyl-1H-pyrazolo[4,3-c]quinoline-8-carboxamide] | 6.90 | 8.22 |
| CN(C(=O)c1ccc2nc(N)c3c(c2c1)COC3)[C@@H]1COc2cc(Br)ccc21 (single isomer, unassigned) [Example 329] | 5.74 | 7.34 |
| CN(C(=O)c1ccc2nc(N)c3cnn(C)c3c2c1)[C@@H]1COc2cc(C3=CCOCC3)ccc21 [Example 618, 4-amino-N-((3S)-6-(3,6-dihydro-2H-pyran-4-yl)-2,3-dihydro-1-benzofuran-3-yl)-N,1-dimethyl-1H-pyrazolo[4,3-c]quinoline-8-carboxamide] | 6.10 | 8.00 |
| CCN(C(=O)c1cc2c(cc1F)nc(N)c1cnn(C)c12)[C@@H]1COc2cc(C(F)(F)F)ccc21 [Example 243, 4-amino-N-ethyl-7-fluoro-1-methyl-N-((3S)-6-(trifluoro-methyl)-2,3-dihydro-1-benzo-furan-3-yl)-1H-pyrazolo[4,3-c]-quinoline-8-carboxamide] | 7.09 | 8.05 |
| [2H]C([2H])([2H])N(C(=O)c1cc2c3c(c(N)nc2cn1)COC3)[C@@H]1COc2cc(C(F)(F)F)ccc21 (single isomer, unassigned) [Example 337] | 5.68 | 7.39 |
| Cc1nn(C)c2c1c(N)nc1ccc(C(=O)N(C)[C@@H]3COc4cc(C(F)(F)F)ccc43)cc12 [Example 263, 4-amino-N,1,3-trimethyl-N-((3S)-6-(trifluoromethyl)-2,3-dihydro-1-benzofuran-3-yl)-1H-pyrazolo[4,3-c]quinoline-8-carboxamide] | 5.70 | 7.24 |
| C[C@H]1OCc2c1c(N)nc1cc(F)c(C(=O)N(C)[C@H]3CCc4nc(C(F)(F)F)ccc43)cc21 (single isomer, unassigned) [Example 360] | 4.37 | 6.09 |
| CN(C(=O)c1cc2c3c(c(N)nc2cc1F)COC3)[C@@H]1COc2nc(C(F)(F)F)ccc21 (single isomer, unassigned) [Example 351] | 5.55 | 7.08 |
| CN(C(=O)c1cc2c(cn1)nc(N)c1cnn(C)c12)[C@@H]1COc2cc(OC(F)(F)F)ccc21 [Example 239, 4-amino-N,1-dimethyl-N-((3S)-6-(trifluoromethoxy)-2,3-dihydro-1-benzofuran-3-yl)-1H-pyrazolo[4,3-c][1,7]-naphthyridine-8-carboxamide] | 6.77 | 8.00 |
| CN(C(=O)c1ccc2nc(N)c3ncncc3c2c1)[C@@H]1COCc2nc(C(F)(F)F)ccc21 [Example 280, 5-amino-N-methyl-N-((5S)-2-(trifluoromethyl)-5,8-dihydro-6H-pyrano[3,4-b]pyridin-5-yl)pyrimido[4,5-c]quinoline-9-carboxamide] | 5.30 | 6.34 |
| CN(C(=O)c1cc2c3c(c(N)nc2cc1F)COC3)[C@@H]1COCc2nc(C(F)(F)F)ccc21 [Example 494, 4-amino-7-fluoro-N-methyl-N-((5S)-2-(trifluoromethyl)-5,8-dihydro-6H-pyrano[3,4-b]pyridin-5-yl)-1,3-dihydrofuro[3,4-c]quinoline-8-carboxamide] | 6.17 | 7.64 |
| CN(C(=O)c1cc2c3c(c(N)nc2cn1)COC3)[C@@H]1COc2cc(F)c(F)cc21 [Example 452, 4-amino-N-((3S)-5,6-difluoro-2,3-dihydro-1-benzofuran-3-yl)-N-methyl-1,3-dihydrofuro[3,4-c][1,7]naphthyridine-8-carboxamide] | 4.87 | 6.76 |
| CN(C(=O)c1ccc2nc(N)c3c(cnn3C)c2c1)[C@@H]1COCc2cc(C(F)(F)F)ncc21 [Example 511, 4-amino-N,3-dimethyl-N-((4S)-7-(trifluoromethyl)-3,4-dihydro-1H-pyrano[4,3-c]pyridin-4-yl)-3H-pyrazolo[3,4-c]quinoline-8-carboxamide] | 4.76 | 6.43 |
| CN(C(=O)c1cc2c(cc1F)nc(N)c1c2cnn1C)[C@@H]1COCc2cc(C(F)(F)F)ccc21 [Example 514, 4-amino-7-fluoro-N,3-dimethyl-N-((4S)-7-(trifluoromethyl)-3,4-dihydro-1H-2-benzopyran-4-yl)-3H-pyrazolo[3,4-c]quinoline-8-carboxamide] | 5.82 | 7.17 |
| CN(C(=O)c1ccc2nc(N)c3cnn(C)c3c2c1)[C@@H]1CCc2nc(C(F)(F)F)ccc21 (single isomer, unassigned) [Example 363] | 5.60 | 7.77 |
| Cc1nc2nc(N)c3cnn(C)c3c2cc1C(=O)N(C)[C@@H]1COCc2nc(C(F)(F)F)ccc21 [Example 301, 4-amino-N,1,7-trimethyl-N-((5S)-2-(trifluoromethyl)-5,8-dihydro-6H-pyrano[3,4-b]pyridin-5-yl)-1H-pyrazolo-[4,3-c][1,8]naphthyridine-8-carboxamide] | 5.90 | 7.55 |
| CN(C(=O)c1cc2c(cc1Cl)nc(N)c1cnn(C)c12)[C@@H]1COc2cc(OC(F)(F)F)ccc21 [Example 481, 4-amino-7-chloro-N,1-dimethyl-N-((3S)-6-(trifluoromethoxy)-2,3-dihydro-1-benzofuran-3-yl)-1H-pyrazolo[4,3-c]quinoline-8-carboxamide] | 7.35 | 8.30 |
| CN(C(=O)c1cc2c3c(c(N)nc2nc1Cl)COC3)[C@@H]1COCc2cc(C#N)ccc21 [Example 275, 4-amino-7-chloro-N-((4S)-7-cyano-3,4-dihydro-1H-2-benzopyran-4-yl)-N-methyl-1,3-dihydrofuro[3,4-c][1,8]-naphthyridine-8-carboxamide] | 5.57 | 7.08 |
| CN(C(=O)c1ccc2nc(N)c3c(c2c1)COC3)[C@H]1COc2nc(C(F)(F)F)ccc21 (single isomer, unassigned) [Example 530] | 4.40 | 5.60 |
| CN(C(=O)c1ccc2nc(N)c3c(c2c1)COC3)C1COc2cc(Br)cnc21 (racemic) [Example 450, 4-amino-N-((3R)-6-bromo-2,3-dihydrofuro[3,2-b]pyridin-3-yl)-N-methyl-1,3-dihydrofuro[3,4-c]quinoline-8-carboxamide and 4-amino-N-((3S)-6-bromo-2,3-dihydrofuro[3,2-b]pyridin-3-yl)-N-methyl-1,3-dihydrofuro[3,4-c]quinoline-8-carboxamide] | 4.42 | 5.68 |
| CN(C(=O)c1cc2c(cc1F)nc(N)c1cnn(C)c12)[C@H]1COCc2ncccc21 (single isomer, unassigned) [Example 424] | 4.73 | 6.23 |
| CN(C(=O)c1cc2c3c(c(N)nc2cc1C(F)(F)F)COC3)[C@@H]1COCc2nc(C(F)(F)F)ccc21 [Example 278, 4-amino-N-methyl-7-(trifluoro-methyl)-N-((5S)-2-(trifluoro-methyl)-5,8-dihydro-6H-pyrano[3,4-b]pyridin-5-yl)-1,3-dihydrofuro[3,4-c]quinoline-8-carboxamide] | 5.37 | 7.25 |
| CN(C(=O)c1ccc2nc(N)c3cnn(C)c3c2c1)[C@@H]1COc2cc(-c3ccc(C(F)(F)F)cc3F)ccc21 [Example 661, 4-amino-N-((3S)-6-(2-fluoro-4-(trifluoromethyl)phenyl)-2,3-dihydro-1-benzofuran-3-yl)-N,1-dimethyl-1H-pyrazolo[4,3-c]quinoline-8-carboxamide] | 6.32 | 7.85 |
| Nc1nc2cc(F)c(C(=O)N(C3CC3)[C@@H]3COc4cc(C(F)(F)F)ccc43)cc2c2c1COC2 (single isomer, unassigned) [Example 554] | 5.86 | 7.68 |
